Laboratory results published in patent US12331044B2, “Inhibitors of histone deacetylase useful for the treatment or prevention of HIV infection” (Merck Sharp & Dohme LLC, priority 2018, dated 2025).
Where two headings read alike, the source gives them in different places.

Key:
human HDAC2 = human HDAC2 (Homo sapiens (Human), UniProt Q92769); assay: HDAC2 inhibition assay (modified FLUOR DE LYS, 384-well); assay type: biochemical; details: […] enzyme, 40 μM substrate BML-KI104, 3 h pre-incubation; read-out: HDAC2 IC50
human HDAC2, sequence (Q92769 whole entry): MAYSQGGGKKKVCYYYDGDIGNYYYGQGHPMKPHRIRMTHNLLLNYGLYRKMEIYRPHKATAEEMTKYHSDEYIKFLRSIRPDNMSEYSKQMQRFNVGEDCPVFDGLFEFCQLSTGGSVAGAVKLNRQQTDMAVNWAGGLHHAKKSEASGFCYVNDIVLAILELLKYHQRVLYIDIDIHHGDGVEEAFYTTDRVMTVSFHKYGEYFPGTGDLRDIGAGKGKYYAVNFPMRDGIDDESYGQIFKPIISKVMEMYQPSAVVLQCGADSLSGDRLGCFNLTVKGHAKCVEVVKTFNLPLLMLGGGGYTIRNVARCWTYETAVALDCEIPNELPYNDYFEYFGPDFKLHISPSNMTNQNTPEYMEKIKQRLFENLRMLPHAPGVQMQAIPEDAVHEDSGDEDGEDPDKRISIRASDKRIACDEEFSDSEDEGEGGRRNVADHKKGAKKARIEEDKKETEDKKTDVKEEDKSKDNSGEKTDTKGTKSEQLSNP

human HDAC8 = human HDAC8 (Homo sapiens (Human), UniProt Q9BY41); assay: HDAC8 inhibition assay (modified FLUOR DE LYS, 384-well); assay type: biochemical; details: […] enzyme, 200 μM substrate BML-KI178, 3 h pre-incubation; read-out: HDAC8 IC50
human HDAC8, sequence (Q9BY41 whole entry): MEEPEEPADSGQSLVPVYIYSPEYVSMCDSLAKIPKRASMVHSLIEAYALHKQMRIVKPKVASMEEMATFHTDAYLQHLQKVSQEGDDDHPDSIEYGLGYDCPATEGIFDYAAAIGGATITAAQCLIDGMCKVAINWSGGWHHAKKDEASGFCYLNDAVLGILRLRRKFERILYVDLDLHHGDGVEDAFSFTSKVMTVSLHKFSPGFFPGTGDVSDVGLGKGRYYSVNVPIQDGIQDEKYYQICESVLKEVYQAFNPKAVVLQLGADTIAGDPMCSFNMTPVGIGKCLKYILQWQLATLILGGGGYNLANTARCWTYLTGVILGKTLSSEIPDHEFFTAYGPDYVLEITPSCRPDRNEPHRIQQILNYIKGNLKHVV
Protocol: The histone deacetylase activities of HDAC1, HDAC2, HDAC3, HDAC6, and HDAC8 were measured in modified FLUOR DE LYS assays in 384-well format. In this assay, HDAC enzymes are initially incubated with an F-acetyl (or -trifluoroacetyl)-L-lysine-containing substrate with a C-terminal amide having aminomethylcoumarin as the amine component. HDACs cleave the F-acetyl group, rendering the resulting product susceptible to AMC cleavage by trypsin. The released AMC is then detected by its fluorescence. […] All steps were performed at room temperature (23° C.). The assay was performed by pre-incubating serial dilutions of test compounds with the target HDAC prior to initiation with substrate. […] Final conditions used for each assay were: 1. […] The reactions were stopped and developed by addition of 30 ul of HDAC developer solution containing a saturating level of HDAC inhibitor as follows: 1. […] For data analysis, background subtracted product (fluorescence) vs. time data for each inhibitor concentration was fitted using a 4-parameter fit.

human HDAC1 = human HDAC1 (Homo sapiens (Human), UniProt Q13547)
human HDAC1, sequence (Q13547 whole entry): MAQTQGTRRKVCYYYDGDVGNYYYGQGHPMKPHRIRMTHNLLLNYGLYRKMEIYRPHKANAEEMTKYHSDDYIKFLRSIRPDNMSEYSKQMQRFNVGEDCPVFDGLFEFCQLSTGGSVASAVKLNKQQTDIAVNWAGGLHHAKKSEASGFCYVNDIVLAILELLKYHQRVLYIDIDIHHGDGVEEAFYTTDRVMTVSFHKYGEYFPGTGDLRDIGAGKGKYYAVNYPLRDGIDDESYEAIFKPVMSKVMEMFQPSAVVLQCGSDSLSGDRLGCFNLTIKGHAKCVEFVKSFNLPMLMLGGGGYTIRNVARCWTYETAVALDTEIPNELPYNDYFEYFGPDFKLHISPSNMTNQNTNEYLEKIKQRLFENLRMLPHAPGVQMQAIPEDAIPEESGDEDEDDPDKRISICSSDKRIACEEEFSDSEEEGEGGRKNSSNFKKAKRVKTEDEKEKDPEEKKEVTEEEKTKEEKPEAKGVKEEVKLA

[1] = target: human HDAC3/SMRT heterodimer (Homo sapiens (Human), UniProt O15379)
human HDAC3/SMRT heterodimer, sequence (O15379 whole entry): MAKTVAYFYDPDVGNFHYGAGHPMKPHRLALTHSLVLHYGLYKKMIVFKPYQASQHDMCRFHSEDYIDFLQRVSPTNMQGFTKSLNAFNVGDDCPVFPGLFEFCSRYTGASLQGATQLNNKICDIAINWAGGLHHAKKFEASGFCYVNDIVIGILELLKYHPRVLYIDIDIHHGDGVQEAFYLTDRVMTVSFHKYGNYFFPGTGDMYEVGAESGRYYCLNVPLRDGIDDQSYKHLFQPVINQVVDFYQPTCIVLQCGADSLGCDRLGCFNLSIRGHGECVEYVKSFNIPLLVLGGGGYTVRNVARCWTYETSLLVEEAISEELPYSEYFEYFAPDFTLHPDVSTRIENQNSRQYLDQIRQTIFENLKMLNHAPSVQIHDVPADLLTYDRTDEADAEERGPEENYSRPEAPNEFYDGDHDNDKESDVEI
human HDAC3/SMRT heterodimer, sequence (Q9Y618 1-899 partner): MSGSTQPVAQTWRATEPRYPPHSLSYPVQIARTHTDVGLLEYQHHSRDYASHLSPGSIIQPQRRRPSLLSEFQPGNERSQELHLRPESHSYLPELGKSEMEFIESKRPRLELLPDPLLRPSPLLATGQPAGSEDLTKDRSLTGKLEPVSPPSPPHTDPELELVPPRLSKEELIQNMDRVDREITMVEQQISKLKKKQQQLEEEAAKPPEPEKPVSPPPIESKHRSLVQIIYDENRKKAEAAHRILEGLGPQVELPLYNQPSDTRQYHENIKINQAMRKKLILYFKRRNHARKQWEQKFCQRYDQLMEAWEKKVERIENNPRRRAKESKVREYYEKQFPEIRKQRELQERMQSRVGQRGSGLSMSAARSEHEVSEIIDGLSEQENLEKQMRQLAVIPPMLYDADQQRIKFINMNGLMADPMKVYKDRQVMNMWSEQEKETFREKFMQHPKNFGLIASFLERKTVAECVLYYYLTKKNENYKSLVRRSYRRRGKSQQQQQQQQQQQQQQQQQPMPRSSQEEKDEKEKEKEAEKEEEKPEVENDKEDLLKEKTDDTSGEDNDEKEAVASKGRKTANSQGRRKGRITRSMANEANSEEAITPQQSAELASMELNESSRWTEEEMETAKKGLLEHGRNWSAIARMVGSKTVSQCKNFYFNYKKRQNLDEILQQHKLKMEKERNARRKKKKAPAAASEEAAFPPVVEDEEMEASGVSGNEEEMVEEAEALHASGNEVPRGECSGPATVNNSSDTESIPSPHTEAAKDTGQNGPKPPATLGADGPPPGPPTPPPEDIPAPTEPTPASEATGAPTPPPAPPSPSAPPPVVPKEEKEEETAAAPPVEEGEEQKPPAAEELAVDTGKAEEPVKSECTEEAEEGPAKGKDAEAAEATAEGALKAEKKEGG

HDAC6 = HDAC6 (Homo sapiens (Human), UniProt Q9UBN7)
HDAC6, sequence (Q9UBN7 whole entry): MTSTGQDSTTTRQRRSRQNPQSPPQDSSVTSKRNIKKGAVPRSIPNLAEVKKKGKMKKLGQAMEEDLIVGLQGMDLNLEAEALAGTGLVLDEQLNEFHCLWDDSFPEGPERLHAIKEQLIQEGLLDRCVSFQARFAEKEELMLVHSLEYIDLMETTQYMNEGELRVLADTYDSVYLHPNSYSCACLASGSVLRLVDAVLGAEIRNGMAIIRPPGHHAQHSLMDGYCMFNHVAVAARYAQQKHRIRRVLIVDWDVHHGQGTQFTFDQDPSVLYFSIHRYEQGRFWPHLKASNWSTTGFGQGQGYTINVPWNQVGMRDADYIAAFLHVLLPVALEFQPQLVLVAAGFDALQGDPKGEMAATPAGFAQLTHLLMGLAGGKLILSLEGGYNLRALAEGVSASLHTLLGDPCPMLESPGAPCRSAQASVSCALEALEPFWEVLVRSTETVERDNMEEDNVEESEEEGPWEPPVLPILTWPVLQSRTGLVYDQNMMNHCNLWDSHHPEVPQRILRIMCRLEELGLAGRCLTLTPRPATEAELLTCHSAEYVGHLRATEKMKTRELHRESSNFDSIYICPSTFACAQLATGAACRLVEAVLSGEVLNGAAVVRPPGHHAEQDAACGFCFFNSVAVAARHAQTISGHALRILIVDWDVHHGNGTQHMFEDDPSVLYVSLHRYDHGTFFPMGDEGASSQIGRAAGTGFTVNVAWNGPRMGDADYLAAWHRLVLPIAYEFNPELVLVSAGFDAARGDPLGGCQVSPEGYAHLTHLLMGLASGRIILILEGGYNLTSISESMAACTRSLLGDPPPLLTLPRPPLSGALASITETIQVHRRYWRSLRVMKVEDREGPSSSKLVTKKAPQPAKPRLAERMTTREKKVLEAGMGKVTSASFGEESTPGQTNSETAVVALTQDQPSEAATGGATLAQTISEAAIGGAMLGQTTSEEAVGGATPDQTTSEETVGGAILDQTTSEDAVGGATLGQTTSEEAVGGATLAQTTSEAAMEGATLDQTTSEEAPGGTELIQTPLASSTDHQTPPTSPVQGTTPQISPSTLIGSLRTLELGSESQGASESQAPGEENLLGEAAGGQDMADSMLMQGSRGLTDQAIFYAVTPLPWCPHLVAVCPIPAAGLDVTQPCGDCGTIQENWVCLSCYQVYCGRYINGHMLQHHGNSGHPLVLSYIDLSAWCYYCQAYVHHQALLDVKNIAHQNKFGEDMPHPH

KARN cells (Jurkat 2C4) = assay: cells; details: Homo sapiens
[2] = read-out: Karn EC50 nM 0.1% NHS, 0.1% normal human serum, luciferase induction, 2 μM SAHA = 100%
[3] = read-out: Karn EC50 nM 5% NHS, 5% normal human serum, luciferase induction, 2 μM SAHA = 100%

SMILES | IC50 (human HDAC2) | IC50 (human HDAC8) | IC50 (human HDAC1) | IC50 [1] | IC50 (HDAC6) | EC50 (KARN cells (Jurkat 2C4); [2]) | EC50 (KARN cells (Jurkat 2C4); [3])
COc1cc2nc(C)ccc2cc1-c1cnc([C@H](CCCCCC(=O)c2cc(C)on2)NC(=O)C2CN(C)C2)[nH]1 [Example 57] | 1 nM | 150 nM | 0.23 nM | 0.24 nM | 45000 nM | 5.5 nM | 13 nM
CCN1CCC2(CC1)C[C@@H]2C(=O)N[C@@H](CCCCCC(=O)c1ncco1)c1ncc(-c2cc(OC)ncc2F)[nH]1 [Example 179, (1S)-6-ethyl-N-[(1S)-1-[5-(5-fluoro-2-methoxypyridin-4-yl)-1H-imidazol-2-yl]-7-(1,3-oxazol-2-yl)-7-oxoheptyl]-6-azaspiro[2.5]octane-1-carboxamide] | 7.1 nM | 65 nM | 2.3 nM | 1.5 nM | 4300 nM | 36 nM | 48 nM
COc1cc2nc(C)ccc2cc1-c1cnc([C@H](CCCCCC(=O)c2ncco2)NC(=O)C2COC(c3ccccc3)CO2)[nH]1 (stereo partly drawn) [Example 172, N-[(1S)-1-[5-(7-methoxy-2-methylquinolin-6-yl)-1H-imidazol-2-yl]-7-(1,3-oxazol-2-yl)-7-oxoheptyl]-5-phenyl-1,4-dioxane-2-carboxamide] | 100 nM | 490 nM | 20 nM | 6.4 nM | > 900 nM | 340 nM | 990 nM
COc1cc2nc(C)ccc2cc1-c1cnc([C@H](CCCCCC(=O)c2ccon2)NC(=O)CN(C)C)[nH]1 [Example 91] | 1.9 nM | 14 nM | 1.5 nM | 1.5 nM | 11000 nM | 17 nM | 22 nM
CN1CCC2(CC1)C[C@@H]2C(=O)N[C@@H](CCCCCC(=O)c1ncco1)c1oc(-c2ccc(F)cc2)nc1C#N [Example 191, (S)-N-((S)-1-(4-cyano-2-(4-fluorophenyl)oxazol-5-yl)-7-(oxazol-2-yl)-7-oxoheptyl)-6-methyl-6-azaspiro[2.5]octane-1-carboxamide] | 12 nM | 2300 nM | 2.5 nM | 1.9 nM | 45000 nM | 110 nM | 100 nM
COc1nc2ccccc2cc1-c1cnc([C@H](CCCCCC(=O)c2ncco2)NC(=O)Cn2cccc2)[nH]1 [Example 150, N-[(1S)-1-[5-(2-methoxyquinolin-3-yl)-1H-imidazol-2-yl]-7-(1,3-oxazol-2-yl)-7-oxoheptyl]-2-(1H-pyrrol-1-yl)acetamide] | 8.8 nM | 120 nM | 2.1 nM | 1.5 nM | 2700 nM | 94 nM | 500 nM
COc1nc2ccccc2cc1-c1cnc([C@H](CCCCCC(=O)c2ncco2)NC(=O)CN(C)C)[nH]1 [Example 41] | 2.6 nM | 65 nM | 0.39 nM | 0.71 nM | 3300 nM | 16 nM | 140 nM
COc1cc2nc(C)ccc2cc1-c1cnc([C@H](CCCCCC(=O)c2ncco2)NC(=O)c2cc3n(n2)CCCO3)[nH]1 [Example 163, N-[(1S)-1-[5-(7-methoxy-2-methylquinolin-6-yl)-1H-imidazol-2-yl]-7-(1,3-oxazol-2-yl)-7-oxoheptyl]-6,7-dihydro-5H-pyrazolo[5,1-b][1,3]oxazine-2-carboxamide] | 8.4 nM | 38 nM | 1.6 nM | 0.53 nM | > 900 nM | 84 nM | 210 nM
CCN1CCC2(CC1)C[C@@H]2C(=O)N[C@@H](CCCCCC(=O)c1ncco1)c1ncc(-c2cc(OC3CCC3)ccc2F)[nH]1 [Example 182, (1S)-N-[(1S)-1-{5-[5-(cyclobutyloxy)-2-fluorophenyl]-1H-imidazol-2-yl}-7-(1,3-oxazol-2-yl)-7-oxoheptyl]-6-ethyl-6-azaspiro[2.5]octane-1-carboxamide] | 9.1 nM | 5.6 nM | 2 nM | 0.79 nM | > 900 nM | 41 nM | 190 nM
CCN1CCC2(CC1)C[C@@H]2C(=O)N[C@@](C)(CCCCCC(=O)c1ccon1)c1ncc(-c2ccccc2F)[nH]1 [Example 183, (S)-6-ethyl-N-((S)-2-(5-(2-fluorophenyl)-1H-imidazol-2-yl)-8-(isoxazol-3-yl)-8-oxooctan-2-yl)-6-azaspiro[2.5]octane-1-carboxamide] | 2.3 nM | 550 nM | 0.56 nM | 0.48 nM | 43000 nM | 37 nM | 37 nM
COc1cc2c(ccc(=O)n2C)cc1-c1cnc([C@H](CCCCCC(=O)c2ccon2)NC(=O)CN(C)C)[nH]1 [Example 93] | 2.2 nM | 3.5 nM | 0.37 nM | 0.46 nM | 4500 nM | 6.6 nM | 14 nM
Cc1cc(C(=O)CCCCC[C@H](N)c2nc(-c3ccccc3F)c[nH]2)no1 [Example 45] | 76 nM | 1200 nM | 8.9 nM | 19 nM | 45000 nM | 460 nM | 1900 nM
CCN1CCC2(CC1)C[C@@H]2C(=O)N[C@@H](CCCCCC(=O)c1ncco1)c1ccn(-c2ccc3nn(C)cc3c2)n1 [Example 180, (1S)-6-ethyl-N-[(1S)-1-[1-(2-methyl-2H-indazol-5-yl)-1H-pyrazol-3-yl]-7-(1,3-oxazol-2-yl)-7-oxoheptyl]-6-azaspiro[2.5]octane-1-carboxamide] | 5.2 nM | 170 nM | 0.9 nM | 1.5 nM | > 900 nM | 200 nM | 190 nM
COc1ccc(-c2cnc([C@@H](N)CCCCCC(=O)c3ncco3)[nH]2)c(F)c1 [Example 140, (7S)-7-amino-7-[5-(2-fluoro-4-methoxyphenyl)-1H-imidazol-2-yl]-1-(1,3-oxazol-2-yl)heptan-1-one] | 6 nM | > 900 nM | 1 nM | 1.3 nM | > 900 nM | 390 nM | 860 nM
COc1cc2nc(C)ccc2cc1-c1cnc([C@H](CCCCCC(=O)c2ncco2)NC(=O)C2COc3ccccc3O2)[nH]1 (stereo partly drawn) [Example 171, N-[(1S)-1-[5-(7-methoxy-2-methylquinolin-6-yl)-1H-imidazol-2-yl]-7-(1,3-oxazol-2-yl)-7-oxoheptyl]-2,3-dihydro-1,4-benzodioxine-2-carboxamide] | 56 nM | 340 nM | 11 nM | 4 nM | > 900 nM | 180 nM | 470 nM
COc1cc2nc(C)ccc2cc1-c1cnc([C@H](CCCCCC(=O)c2ncco2)NCc2ccccc2)[nH]1 [Example 82, (S)-7-(benzylamino)-7-(5-(7-methoxy-2-methylquinolin-6-yl)-1H-imidazol-2-yl)-1-(oxazol-2-yl)heptan-1-one] | 7.8 nM | 1800 nM | 3.1 nM | 2.7 nM | 1500 nM | 180 nM | 320 nM
CS(=O)(=O)c1ccc(-c2cnc([C@@H](N)CCCCCC(=O)c3ncco3)[nH]2)c(F)c1 [Example 143, (7S)-7-amino-7-{5-[2-fluoro-4-(methylsulfonyl)phenyl]-1H-imidazol-2-yl}-1-(1,3-oxazol-2-yl)heptan-1-one] | 35 nM | > 900 nM | 7.2 nM | 7.9 nM | > 900 nM | 1200 nM | 1600 nM
CN1CCC(C(=O)N[C@@H](CCCCCC(=O)c2nccs2)c2nc(-c3ccc(F)cc3)c[nH]2)CC1 [Example 6, (S)-N-(1-(4-(4-fluorophenyl)-1H-imidazol-2-yl)-7-oxo-7-(thiazol-2-yl)heptyl)-1-methylpiperidine-4-carboxamide] | 14 nM | 55 nM | 2.9 nM | 1.5 nM | 45000 nM | 87 nM | 160 nM
Cc1ccc2cc(-c3c[nH]c([C@H](CCCCCC(=O)c4ccon4)NC(=O)[C@H]4CC45CCN(C)CC5)n3)ccc2n1 [Example 44] | 0.97 nM | 5.7 nM | 0.24 nM | 0.26 nM | 45000 nM | 9.5 nM | 9.1 nM
COc1nc2ccccc2cc1-c1c[nH]c([C@@H](N)CCCCCC(=O)c2ncco2)n1 [Example 15] | 18 nM | 720 nM | 5.2 nM | 7.3 nM | 40000 nM | 180 nM | 670 nM
COc1nc2ccccc2cc1-c1cnc([C@H](CCCCCC(=O)c2ncco2)NC(=O)CN2CCCCC2)[nH]1 [Example 53] | 4.9 nM | 92 nM | 2.4 nM | 1.6 nM | 1100 nM | 26 nM | 220 nM
Cc1ccc2cc(-c3cnc([C@@H](N)CCCCCC(=O)c4ncco4)[nH]3)c(Cl)cc2n1 [Example 22] | 38 nM | 1500 nM | 10 nM | 6.7 nM | 45000 nM | 130 nM | 290 nM
